Measured values from the supplement of paper PMC4862054.
Several values for one entry are separate records, joined by “and”; a condition that tells them apart may be missing. Identical values can stand only once.

Assays:
Test in all cases: normalised viability (% of control), CellTiter-Blue; higher = more viable cells (about 100 = DMSO control)
HDQ-P1 [1] = details: incubation time: 72 h
Protocol: (§1)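 DSRT, CellTiter-Blue viability, 72 h incubation. Signal is normalised to DMSO and benzethonium chloride controls. Value is the normalised response at dose 3.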

CAL-85-1 [2] = details: incubation time: 72 h
Protocol: as §1

CAL-148 [3] = details: incubation time: 72 h
Protocol: as §1

MDA-MB-468 [4] = details: incubation time: 72 h
Protocol: as §1

CAL-120 [5] = details: incubation time: 72 h
Protocol: as §1

MFM-223 [6] = details: incubation time: 72 h
Protocol: as §1

CAL-51 = details: incubation time: 72 h
Protocol: as §1

SK-BR-3 [7] = details: incubation time: 72 h
Protocol: as §1

DU-4475 = details: incubation time: 72 h
Protocol: as §1

HCC1599 [8] = details: incubation time: 72 h
Protocol: as §1

HCC1937 = details: incubation time: 72 h
Protocol: as §1

BT-474 = details: incubation time: 72 h
Protocol: as §1

HCC1143 [9] = details: incubation time: 72 h
Protocol: as §1

MDA-MB-436 [10] = details: incubation time: 72 h
Protocol: as §1

MDA-MB-453 = details: incubation time: 72 h
Protocol: as §1

BT-549 = details: incubation time: 72 h
Protocol: as §1

HDQ-P1 [11] = details: incubation time: 72 h; remark: listed apart in the source
Method in brief: (§2)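 Seeded at 20 µl suspension per well onto compound-loaded 384-well plates, breast cancer cell lines were incubated 72 h. CellTiter-Blue fluorescence at 560/590 nm was then read, with each plate normalised to vehicle (100) and a positive kill control (0). Normalised viability is reported at a single listed concentration of the series.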

CAL-85-1 [12] = details: incubation time: 72 h; remark: listed apart in the source
Method in brief: as §2

Hs578T [13] = details: incubation time: 72 h
Method in brief: as §2

CAL-148 [14] = details: incubation time: 72 h; remark: listed apart in the source
Method in brief: as §2

MDA-MB-468 [15] = details: incubation time: 72 h; remark: listed apart in the source
Method in brief: as §2

CAL-120 [16] = details: incubation time: 72 h; remark: listed apart in the source
Method in brief: as §2

MFM-223 [17] = details: incubation time: 72 h; remark: listed apart in the source
Method in brief: as §2

SK-BR-3 [18] = details: incubation time: 72 h; remark: listed apart in the source
Method in brief: as §2

HCC1599 [19] = details: incubation time: 72 h; remark: listed apart in the source
Method in brief: as §2

MDA-MB-231 [20] = details: incubation time: 72 h
Method in brief: as §2

HCC1143 [21] = details: incubation time: 72 h; remark: listed apart in the source
Method in brief: as §2

MDA-MB-436 [22] = details: incubation time: 72 h; remark: listed apart in the source
Method in brief: as §2

Hs578T [23] = details: 1000 nM; incubation time: 72 h
Protocol: as §1

MDA-MB-231 [24] = details: 1000 nM; incubation time: 72 h
Protocol: as §1

CS(=O)(=O)CCNCc1ccc(-c2ccc3ncnc(Nc4ccc(OCc5cccc(F)c5)c(Cl)c4)c3c2)o1 [Lapatinib]
Details | normalised viability
BT-474, 100 nM | 51.4% and 56.8%
BT-549, 100 nM | 85.1% and 107%
CAL-51, 10 nM | 116% and 104%
CAL-85-1 [2], 10 nM | 94.6% and 101%
CAL-85-1 [12], 3 nM | 97.7% and 91.7%
CAL-85-1 [12], 30 nM | 90.3% and 92.4%
CAL-85-1 [12], 100 nM | 94.6% and 91.4%
CAL-120 [5], 100 nM | 84.9% and 101%
CAL-120 [16], 10 nM | 92.4% and 99.8%
CAL-120 [16], 1000 nM | 92% and 102%
CAL-148 [3], 10 nM | 86% and 86.5%
CAL-148 [14], 3 nM | 92.2% and 89.8%
CAL-148 [14], 30 nM | 89.5% and 93.5%
CAL-148 [14], 100 nM | 89.3% and 83.7%
DU-4475, 10 nM | 111% and 109%
HCC1143 [9], 100 nM | 82.1% and 95.4%
HCC1143 [21], 10 nM | 70.7% and 83.8%
HCC1143 [21], 1000 nM | 76.2% and 89%
HCC1143 [21], 10000 nM | 71% and 82.7%
HCC1599 [8], 100 nM | 93.9% and 94.5%
HCC1599 [19], 10 nM | 108% and 96.7%
HCC1599 [19], 10000 nM | 63.5% and 83.8%
HCC1937, 100 nM | 97.1% and 106%
HDQ-P1 [1], 10 nM | 102% and 124%
HDQ-P1 [11], 100 nM | 87.1% and 110%
Hs578T [13], 1000 nM | 93.5% and 95.4%
Hs578T [13], 10000 nM | 24.9% and 33.1%
MDA-MB-231 [20], 1000 nM | 85.8% and 109%
MDA-MB-231 [20], 10000 nM | 52.9% and 52.4%
MDA-MB-436 [10], 100 nM | 95.6% and 116%
MDA-MB-436 [22], 10 nM | 92.8% and 106%
MDA-MB-436 [22], 1000 nM | 91.3% and 112%
MDA-MB-436 [22], 10000 nM | 22.6% and 43.3%
MDA-MB-453, 10 nM | 95.8% and 83.7%
MDA-MB-468 [4], 100 nM | 86.8% and 97.8%
MDA-MB-468 [15], 10 nM | 100% and 105%
MDA-MB-468 [15], 1000 nM | 64.2% and 68.2%
MDA-MB-468 [15], 10000 nM | 11.8% and 16.3%
MFM-223 [6], 100 nM | 94% and 92.9%
MFM-223 [17], 10 nM | 92.8% and 95.8%
MFM-223 [17], 1000 nM | 95.8% and 96.9%
MFM-223 [17], 10000 nM | 49.5% and 66%
SK-BR-3 [7], 100 nM | 34.6% and 32.9%
SK-BR-3 [18], 10 nM | 78.8% and 92.4%
SK-BR-3 [18], 1000 nM | 18.2% and 22.2%
SK-BR-3 [18], 10000 nM | 6.7% and 8.97%

CS(=O)(=O)OCCCCOS(C)(=O)=O [Busulfan]
Details | normalised viability [%]
BT-474, 1000 nM | 110
BT-549, 1000 nM | 85.1
CAL-51, 100 nM | 95.3
CAL-85-1 [2], 100 nM | 115
CAL-85-1 [12], 30 nM | 106
CAL-85-1 [12], 300 nM | 101
CAL-85-1 [12], 1000 nM | 108
CAL-120 [5], 1000 nM | 113
CAL-120 [16], 100 nM | 110
CAL-120 [16], 10000 nM | 105
CAL-120 [16], 100000 nM | 88.1
CAL-148 [3], 100 nM | 106
CAL-148 [14], 30 nM | 124
CAL-148 [14], 300 nM | 111
CAL-148 [14], 1000 nM | 115
DU-4475, 100 nM | 91.4
HCC1143 [9], 1000 nM | 124
HCC1143 [21], 100 nM | 104
HCC1143 [21], 10000 nM | 108
HCC1143 [21], 100000 nM | 108
HCC1599 [8], 1000 nM | 101
HCC1599 [19], 100 nM | 90.2
HCC1599 [19], 10000 nM | 75.4
HCC1599 [19], 100000 nM | 109
HCC1937, 1000 nM | 94.6
HDQ-P1 [1], 100 nM | 98.1
HDQ-P1 [11], 30 nM | 109
HDQ-P1 [11], 300 nM | 113
HDQ-P1 [11], 1000 nM | 94.4
Hs578T [13], 100 nM | 103
Hs578T [13], 10000 nM | 101
Hs578T [13], 100000 nM | 85.7
MDA-MB-231 [20], 100 nM | 94.3
MDA-MB-231 [20], 10000 nM | 95.4
MDA-MB-231 [20], 100000 nM | 94.3
MDA-MB-436 [10], 1000 nM | 93.3
MDA-MB-436 [22], 100 nM | 106
MDA-MB-436 [22], 10000 nM | 95.2
MDA-MB-436 [22], 100000 nM | 82.9
MDA-MB-453, 100 nM | 102
MDA-MB-468 [4], 1000 nM | 114
MDA-MB-468 [15], 100 nM | 99.1
MDA-MB-468 [15], 10000 nM | 109
MDA-MB-468 [15], 100000 nM | 90.5
MFM-223 [6], 1000 nM | 90.3
MFM-223 [17], 100 nM | 108
MFM-223 [17], 10000 nM | 95.7
MFM-223 [17], 100000 nM | 99.1
SK-BR-3 [7], 1000 nM | 97.5
SK-BR-3 [18], 100 nM | 95.1
SK-BR-3 [18], 10000 nM | 104
SK-BR-3 [18], 100000 nM | 87.8

Details | normalised viability [%]
Hs578T [23] | 91.2
MDA-MB-231 [24] | 99.5
